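Results reflect a 48-hour exposure of cells in 96-well plates to compound at five concentrations. GI50: concentration for 50% inhibition of growth.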 The source made the active and inactive calls. Rule as the data show it: active = GI50 up to about 1.1 µM and inactive = higher.
Tests used:
Test in all cases: inhibition of tumour cell growth, NCI panel, 48 h
786-0 = tested on: 786-0
DU-145 = tested on: DU-145
EKVX = tested on: EKVX
HCC 2998 = tested on: HCC 2998
HOP-62 = tested on: HOP-62
LOX IMVI = tested on: LOX IMVI
MDA-MB-231 = tested on: MDA-MB-231
NCI-H226 = tested on: NCI-H226
NCI-H522 = tested on: NCI-H522
NCI/ADR-RES = tested on: NCI/ADR-RES
RPMI-8226 = tested on: RPMI-8226
SK-MEL-2 = tested on: SK-MEL-2
SK-MEL-5 = tested on: SK-MEL-5
SK-OV-3 = tested on: SK-OV-3
SN12C = tested on: SN12C
SNB-19 = tested on: SNB-19
T47D = tested on: T47D
NCI-H460 = tested on: NCI-H460

Measured: GI50

O=C(NCC(O)COc1ccccc1)c1ccccc1O (stereo not given)
inactive: 786-0 > 100 µM | DU-145 > 100 µM | EKVX > 100 µM | HCC 2998 > 100 µM | HOP-62 > 100 µM | LOX IMVI > 100 µM | MDA-MB-231 > 100 µM | NCI-H226 > 100 µM | NCI-H522 55.6 µM | NCI/ADR-RES 58.6 µM | RPMI-8226 > 100 µM | SK-MEL-2 > 100 µM | SK-MEL-5 63.5 µM | SK-OV-3 > 100 µM | SN12C > 100 µM | SNB-19 91 µM | T47D 42.4 µM

Cc1ccc(S(=O)(=O)NC(=O)C2=C3SCCN3C(=O)N(S(=O)(=O)c3ccc(C)cc3)C2c2ccccc2)cc1 (stereo not given)
inactive: 786-0 51.9 µM | DU-145 > 100 µM | EKVX > 100 µM | HCC 2998 12.2 µM | HOP-62 59.3 µM | LOX IMVI 39.4 µM | MDA-MB-231 36.6 µM | NCI-H226 > 100 µM | NCI-H460 71.1 µM | NCI-H522 20.4 µM | NCI/ADR-RES > 100 µM | RPMI-8226 26.7 µM | SK-MEL-2 46.8 µM | SK-OV-3 24.1 µM | SN12C 49.9 µM | SNB-19 34.8 µM | T47D > 100 µM

N#Cc1ccc2oc3ccc(C#N)cc3c(=O)c2c1
inactive: 786-0 25.8 µM | DU-145 30.8 µM | HCC 2998 58.2 µM | MDA-MB-231 > 100 µM | NCI-H226 35.9 µM | NCI-H460 18.6 µM | NCI-H522 58.2 µM | NCI/ADR-RES > 100 µM | RPMI-8226 23.2 µM | SK-MEL-2 19.6 µM | SK-MEL-5 5.6 µM | SN12C > 100 µM | SNB-19 27.9 µM | T47D > 100 µM

COc1ccccc1N/C(=C\C(=O)C(=O)NC12CC3CC(CC(C3)C1)C2)c1ccccc1
inactive: 786-0 > 10 µM | DU-145 > 10 µM | EKVX > 10 µM | HCC 2998 > 10 µM | HOP-62 > 10 µM | LOX IMVI > 10 µM | MDA-MB-231 > 10 µM | NCI-H226 > 10 µM | NCI-H460 > 10 µM | NCI-H522 > 10 µM | NCI/ADR-RES > 10 µM | RPMI-8226 > 10 µM | SK-MEL-2 > 10 µM | SK-MEL-5 > 10 µM | SK-OV-3 > 10 µM | SN12C > 10 µM | T47D > 10 µM

COC(=O)C1=CCC[C@H]2[C@@]1(COC(C)=O)CC[C@@H](C)[C@]2(C)CC(=O)c1ccoc1
inactive: 786-0 15.2 µM | DU-145 21.5 µM | EKVX 24.3 µM | HCC 2998 12.9 µM | LOX IMVI 10.8 µM | MDA-MB-231 17.2 µM | NCI-H226 15.8 µM | NCI-H460 14.3 µM | NCI-H522 7.87 µM | NCI/ADR-RES 14.7 µM | RPMI-8226 11.4 µM | SK-MEL-2 15.7 µM | SK-MEL-5 8.89 µM | SK-OV-3 47.5 µM | SN12C 17.8 µM | SNB-19 27.9 µM | T47D 8.47 µM

C=C1CC[C@H]2C(C)=CC[C@H]3C(=C)C(=O)O[C@@H]3[C@@H]12 [EREMANTHIN]
inactive: 786-0 > 100 µM | DU-145 > 100 µM | EKVX > 100 µM | HCC 2998 > 100 µM | LOX IMVI > 100 µM | MDA-MB-231 > 100 µM | NCI-H226 > 100 µM | NCI-H460 > 100 µM | NCI-H522 > 100 µM | NCI/ADR-RES > 100 µM | SK-MEL-2 > 100 µM | SK-MEL-5 > 100 µM | SK-OV-3 > 100 µM | SN12C > 100 µM | SNB-19 > 100 µM | T47D > 100 µM

CCOC(=O)C1CCC(=O)N1C(=O)c1ccc(Cl)cc1 (stereo not given)
inactive: 786-0 > 100 µM | DU-145 > 100 µM | EKVX > 100 µM | HCC 2998 > 100 µM | HOP-62 > 100 µM | LOX IMVI > 100 µM | MDA-MB-231 > 100 µM | NCI-H226 > 100 µM | NCI-H460 > 100 µM | NCI-H522 > 100 µM | NCI/ADR-RES > 100 µM | RPMI-8226 > 100 µM | SK-MEL-5 > 100 µM | SN12C > 100 µM | SNB-19 > 100 µM | T47D > 100 µM

CNc1ncnc2c1nc(NC1CCCC1)n2C1OC(CO)C(O)C1O (stereo not given)
inactive: 786-0 > 100 µM | DU-145 > 100 µM | HCC 2998 > 100 µM | HOP-62 > 100 µM | MDA-MB-231 > 100 µM | NCI-H460 > 100 µM | NCI-H522 > 100 µM | NCI/ADR-RES > 100 µM | SK-MEL-2 > 100 µM | SK-MEL-5 > 100 µM | SK-OV-3 > 100 µM | SN12C > 100 µM | SNB-19 > 100 µM | T47D > 100 µM

COc1ccc(-c2nc(-c3cnccn3)n(C3OC(CO)C(O)C(O)C3O)n2)cc1 (stereo not given)
inactive: 786-0 > 100 µM | DU-145 > 100 µM | EKVX > 100 µM | HCC 2998 > 100 µM | HOP-62 > 100 µM | LOX IMVI > 100 µM | MDA-MB-231 > 100 µM | NCI-H460 > 100 µM | NCI-H522 > 100 µM | NCI/ADR-RES > 100 µM | RPMI-8226 > 100 µM | SK-MEL-5 > 100 µM | SK-OV-3 > 100 µM | SN12C > 100 µM | SNB-19 > 100 µM | T47D > 100 µM

COC(=O)c1cc(=O)nc2sc3cccc(C)c3n12
inactive: 786-0 21.3 µM | DU-145 > 100 µM | EKVX 29.6 µM | HOP-62 > 100 µM | LOX IMVI 14.8 µM | MDA-MB-231 24.8 µM | NCI-H226 18.7 µM | NCI-H460 68.7 µM | NCI-H522 23.2 µM | NCI/ADR-RES > 100 µM | RPMI-8226 22 µM | SK-MEL-2 30.3 µM | SK-MEL-5 60.7 µM | SK-OV-3 > 100 µM | SN12C 40.6 µM | SNB-19 46.3 µM | T47D 37.8 µM

COc1ccc2[nH]c(Cl)c(/C=C3/C(=O)N(c4ccccc4)c4ccccc43)c2c1
inactive: 786-0 6.37 µM | DU-145 18.3 µM | EKVX 7.08 µM | HCC 2998 4.24 µM | HOP-62 6.81 µM | LOX IMVI 3.29 µM | MDA-MB-231 6.35 µM | NCI-H460 3.55 µM | NCI-H522 3.25 µM | NCI/ADR-RES 2.1 µM | RPMI-8226 2.82 µM | SK-MEL-2 2.92 µM | SK-MEL-5 2.28 µM | SK-OV-3 3.5 µM | SN12C 4.78 µM | SNB-19 9.46 µM | T47D 3.76 µM

CC(C)=CC1C(C(=O)Oc2ccccc2C(C)C)C1(C)C (stereo not given)
inactive: 786-0 19.9 µM | DU-145 40.5 µM | EKVX 17.3 µM | HCC 2998 17.8 µM | HOP-62 27.9 µM | LOX IMVI 17.7 µM | MDA-MB-231 22.9 µM | NCI-H460 22.4 µM | NCI-H522 16.6 µM | NCI/ADR-RES 30 µM | RPMI-8226 19.3 µM | SK-MEL-2 17.1 µM | SK-MEL-5 18.2 µM | SK-OV-3 31.6 µM | SN12C 20.5 µM | SNB-19 34.3 µM | T47D 19.8 µM

From ChEMBL document CHEMBL1201862, “PubChem BioAssay data set” (2004)
